Source: ChEMBL document CHEMBL2331439 (J Med Chem, 2013)

Legend:
[1] = molecular target: MAP kinase-activated protein kinase 2 (Homo sapiens, UniProt P49137); test: Inhibition of recombinant MAPKAPK2 (unknown origin) by FRET-based Z'-LYTE assay
[2] = molecular target: Vascular endothelial growth factor receptor 2 (Homo sapiens, UniProt P35968); test: Inhibition of recombinant KDR (unknown origin) by FRET-based Z'-LYTE assay
[3] = molecular target: Mitogen-activated protein kinase 14 (Homo sapiens, UniProt Q16539); test: Inhibition of recombinant MAPK14 (unknown origin) by FRET-based Z'-LYTE assay
[4] = molecular target: T1, Serine/threonine-protein kinase Nek1 (Homo sapiens, UniProt Q96PY6); test: Inhibition of recombinant NEK1 (unknown origin) by FRET-based Z'-LYTE assay
T1 sequence (Q96PY6 whole entry): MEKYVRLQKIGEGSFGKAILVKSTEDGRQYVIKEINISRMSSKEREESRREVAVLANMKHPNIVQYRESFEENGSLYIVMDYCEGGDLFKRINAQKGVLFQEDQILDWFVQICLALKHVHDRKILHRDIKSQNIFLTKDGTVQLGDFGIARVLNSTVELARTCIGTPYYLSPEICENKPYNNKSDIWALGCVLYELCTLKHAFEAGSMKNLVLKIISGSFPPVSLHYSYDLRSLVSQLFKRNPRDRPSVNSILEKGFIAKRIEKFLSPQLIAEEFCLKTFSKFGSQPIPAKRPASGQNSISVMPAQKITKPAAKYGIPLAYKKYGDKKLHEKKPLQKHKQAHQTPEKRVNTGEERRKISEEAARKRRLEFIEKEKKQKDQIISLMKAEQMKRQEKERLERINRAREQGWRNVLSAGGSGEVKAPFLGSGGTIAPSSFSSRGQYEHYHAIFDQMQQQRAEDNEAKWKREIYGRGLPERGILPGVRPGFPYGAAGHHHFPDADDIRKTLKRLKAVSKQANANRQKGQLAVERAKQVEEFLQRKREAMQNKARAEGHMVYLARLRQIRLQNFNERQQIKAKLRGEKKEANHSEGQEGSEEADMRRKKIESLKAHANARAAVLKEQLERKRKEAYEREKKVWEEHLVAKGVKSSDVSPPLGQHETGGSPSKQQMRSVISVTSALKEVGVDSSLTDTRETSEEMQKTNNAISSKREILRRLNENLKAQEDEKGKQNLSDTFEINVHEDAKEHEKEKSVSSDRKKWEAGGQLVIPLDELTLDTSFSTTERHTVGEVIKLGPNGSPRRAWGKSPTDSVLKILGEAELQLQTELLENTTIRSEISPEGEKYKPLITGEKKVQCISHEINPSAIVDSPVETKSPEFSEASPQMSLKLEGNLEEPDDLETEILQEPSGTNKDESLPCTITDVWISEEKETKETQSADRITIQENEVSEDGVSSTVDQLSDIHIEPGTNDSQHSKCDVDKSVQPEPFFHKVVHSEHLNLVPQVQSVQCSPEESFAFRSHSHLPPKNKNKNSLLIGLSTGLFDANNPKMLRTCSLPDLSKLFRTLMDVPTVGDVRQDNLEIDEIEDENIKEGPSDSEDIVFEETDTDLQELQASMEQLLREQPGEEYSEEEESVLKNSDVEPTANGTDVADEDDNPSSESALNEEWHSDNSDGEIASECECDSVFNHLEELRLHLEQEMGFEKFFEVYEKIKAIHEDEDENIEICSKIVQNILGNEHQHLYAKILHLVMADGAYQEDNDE

[5] = molecular target: Dual specificity mitogen-activated protein kinase kinase 1 (Homo sapiens, UniProt Q02750); test: Inhibition of recombinant MEK1 (unknown origin) by cascade reaction assay
[6] = molecular target: Mitogen-activated protein kinase 1 (Homo sapiens, UniProt P28482); test: Inhibition of recombinant ERK2 (unknown origin) by FRET-based Z'-LYTE assay
[7] = molecular target: RAF proto-oncogene serine/threonine-protein kinase (Homo sapiens, UniProt P04049); test: Inhibition of recombinant RAF1 (unknown origin) by cascade reaction assay
[8] = molecular target: AMP-activated protein kinase (AMPK) alpha-1/beta-1/gamma-1 (Homo sapiens, UniProt P54619+Q13131+Q9Y478); test: Inhibition of recombinant AMPK A1/B1/G1 (unknown origin) by FRET-based Z'-LYTE assay; format: protein-complex assay
[9] = molecular target: Ribosomal protein S6 kinase beta-1 (Homo sapiens, UniProt P23443); test: Inhibition of recombinant RPS6K1 (unknown origin) by FRET-based Z'-LYTE assay
[10] = molecular target: RAC-beta serine/threonine-protein kinase (Homo sapiens, UniProt P31751); test: Inhibition of recombinant AKT2 (unknown origin) by FRET-based Z'-LYTE assay
[11] = molecular target: T2, Inhibitor of nuclear factor kappa-B kinase subunit beta (Homo sapiens, UniProt O14920); test: Inhibition of recombinant IKBKB (unknown origin) by FRET-based Z'-LYTE assay
T2 sequence (O14920 whole entry): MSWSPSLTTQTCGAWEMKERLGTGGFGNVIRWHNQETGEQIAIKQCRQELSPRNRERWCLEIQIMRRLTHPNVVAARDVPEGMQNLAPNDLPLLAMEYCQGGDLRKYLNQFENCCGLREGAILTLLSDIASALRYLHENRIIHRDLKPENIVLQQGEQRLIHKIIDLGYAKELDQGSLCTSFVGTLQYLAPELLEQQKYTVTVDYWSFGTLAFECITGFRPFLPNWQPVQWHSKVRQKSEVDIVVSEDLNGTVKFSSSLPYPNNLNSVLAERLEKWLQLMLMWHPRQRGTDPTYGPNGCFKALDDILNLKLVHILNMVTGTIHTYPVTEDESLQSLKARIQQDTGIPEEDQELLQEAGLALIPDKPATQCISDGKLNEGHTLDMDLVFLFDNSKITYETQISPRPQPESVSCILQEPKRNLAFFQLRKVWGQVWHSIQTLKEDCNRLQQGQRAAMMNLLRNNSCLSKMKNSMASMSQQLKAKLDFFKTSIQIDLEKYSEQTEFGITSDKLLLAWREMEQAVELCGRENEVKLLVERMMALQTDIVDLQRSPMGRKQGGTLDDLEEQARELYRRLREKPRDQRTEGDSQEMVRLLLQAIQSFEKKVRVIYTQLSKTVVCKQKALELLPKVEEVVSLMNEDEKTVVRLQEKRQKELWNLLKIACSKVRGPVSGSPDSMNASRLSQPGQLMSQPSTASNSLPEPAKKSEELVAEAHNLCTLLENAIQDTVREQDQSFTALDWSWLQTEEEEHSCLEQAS

[12] = molecular target: RAC-alpha serine/threonine-protein kinase (Homo sapiens, UniProt P31749); test: Inhibition of recombinant AKT1 (unknown origin) by FRET-based Z'-LYTE assay
Chain of RAC-alpha serine/threonine-protein kinase (P31749 whole entry): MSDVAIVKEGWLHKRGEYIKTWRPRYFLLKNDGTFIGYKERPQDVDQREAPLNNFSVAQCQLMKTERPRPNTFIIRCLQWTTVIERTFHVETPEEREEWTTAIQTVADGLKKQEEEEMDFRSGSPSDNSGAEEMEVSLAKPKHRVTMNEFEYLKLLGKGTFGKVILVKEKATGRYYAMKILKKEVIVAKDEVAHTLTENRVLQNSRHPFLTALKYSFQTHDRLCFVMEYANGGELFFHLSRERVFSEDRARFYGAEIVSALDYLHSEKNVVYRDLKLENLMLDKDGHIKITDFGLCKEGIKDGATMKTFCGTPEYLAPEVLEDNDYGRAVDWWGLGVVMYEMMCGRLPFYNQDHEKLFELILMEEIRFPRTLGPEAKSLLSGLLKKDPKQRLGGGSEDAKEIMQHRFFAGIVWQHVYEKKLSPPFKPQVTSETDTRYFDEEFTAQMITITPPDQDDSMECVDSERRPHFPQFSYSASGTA

Chain of MAP kinase-activated protein kinase 2 (P49137 whole entry): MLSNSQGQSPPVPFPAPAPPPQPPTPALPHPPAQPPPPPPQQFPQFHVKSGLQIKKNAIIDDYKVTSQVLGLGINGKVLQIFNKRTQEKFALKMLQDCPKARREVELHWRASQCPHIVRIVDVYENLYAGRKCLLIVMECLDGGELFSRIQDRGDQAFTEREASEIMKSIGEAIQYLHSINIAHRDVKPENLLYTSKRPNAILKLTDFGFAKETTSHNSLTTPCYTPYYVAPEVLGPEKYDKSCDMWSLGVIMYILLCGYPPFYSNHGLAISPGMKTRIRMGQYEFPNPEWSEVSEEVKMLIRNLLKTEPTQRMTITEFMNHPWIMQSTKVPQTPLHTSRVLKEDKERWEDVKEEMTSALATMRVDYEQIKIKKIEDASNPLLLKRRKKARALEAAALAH
Chain of Mitogen-activated protein kinase 1 (P28482 whole entry): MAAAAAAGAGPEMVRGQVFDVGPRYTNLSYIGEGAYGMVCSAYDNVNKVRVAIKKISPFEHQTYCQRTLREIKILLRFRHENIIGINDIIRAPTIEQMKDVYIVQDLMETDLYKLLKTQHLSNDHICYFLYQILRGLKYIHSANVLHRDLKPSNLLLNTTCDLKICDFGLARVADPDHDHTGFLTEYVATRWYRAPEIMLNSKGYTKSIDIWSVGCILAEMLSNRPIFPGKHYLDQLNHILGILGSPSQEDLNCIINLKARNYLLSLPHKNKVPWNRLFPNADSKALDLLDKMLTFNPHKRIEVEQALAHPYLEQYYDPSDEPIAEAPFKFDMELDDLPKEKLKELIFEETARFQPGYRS
Chain of RAC-beta serine/threonine-protein kinase (P31751 whole entry): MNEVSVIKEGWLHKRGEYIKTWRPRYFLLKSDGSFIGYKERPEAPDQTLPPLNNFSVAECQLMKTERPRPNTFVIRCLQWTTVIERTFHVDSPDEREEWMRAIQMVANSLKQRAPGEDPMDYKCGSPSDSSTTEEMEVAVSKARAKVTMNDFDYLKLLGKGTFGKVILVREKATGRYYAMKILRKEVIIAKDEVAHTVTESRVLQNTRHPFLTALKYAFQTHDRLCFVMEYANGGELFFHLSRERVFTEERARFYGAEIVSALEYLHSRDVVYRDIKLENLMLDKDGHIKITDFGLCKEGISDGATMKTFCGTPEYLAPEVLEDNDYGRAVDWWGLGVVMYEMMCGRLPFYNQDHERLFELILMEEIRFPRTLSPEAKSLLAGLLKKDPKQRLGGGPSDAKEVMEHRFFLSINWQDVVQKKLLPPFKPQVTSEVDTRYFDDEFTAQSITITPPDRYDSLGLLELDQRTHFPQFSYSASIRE
Chain of Mitogen-activated protein kinase 14 (Q16539 whole entry): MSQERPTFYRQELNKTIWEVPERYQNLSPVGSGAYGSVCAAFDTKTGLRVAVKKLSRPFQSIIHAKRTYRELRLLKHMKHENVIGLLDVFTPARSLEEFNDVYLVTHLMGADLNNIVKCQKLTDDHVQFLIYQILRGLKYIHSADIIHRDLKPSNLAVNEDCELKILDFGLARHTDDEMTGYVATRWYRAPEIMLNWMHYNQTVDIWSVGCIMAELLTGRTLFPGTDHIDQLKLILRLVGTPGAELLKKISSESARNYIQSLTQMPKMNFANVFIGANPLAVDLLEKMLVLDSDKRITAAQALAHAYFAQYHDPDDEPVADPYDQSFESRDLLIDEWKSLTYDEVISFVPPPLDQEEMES
Chain of RAF proto-oncogene serine/threonine-protein kinase (P04049 whole entry): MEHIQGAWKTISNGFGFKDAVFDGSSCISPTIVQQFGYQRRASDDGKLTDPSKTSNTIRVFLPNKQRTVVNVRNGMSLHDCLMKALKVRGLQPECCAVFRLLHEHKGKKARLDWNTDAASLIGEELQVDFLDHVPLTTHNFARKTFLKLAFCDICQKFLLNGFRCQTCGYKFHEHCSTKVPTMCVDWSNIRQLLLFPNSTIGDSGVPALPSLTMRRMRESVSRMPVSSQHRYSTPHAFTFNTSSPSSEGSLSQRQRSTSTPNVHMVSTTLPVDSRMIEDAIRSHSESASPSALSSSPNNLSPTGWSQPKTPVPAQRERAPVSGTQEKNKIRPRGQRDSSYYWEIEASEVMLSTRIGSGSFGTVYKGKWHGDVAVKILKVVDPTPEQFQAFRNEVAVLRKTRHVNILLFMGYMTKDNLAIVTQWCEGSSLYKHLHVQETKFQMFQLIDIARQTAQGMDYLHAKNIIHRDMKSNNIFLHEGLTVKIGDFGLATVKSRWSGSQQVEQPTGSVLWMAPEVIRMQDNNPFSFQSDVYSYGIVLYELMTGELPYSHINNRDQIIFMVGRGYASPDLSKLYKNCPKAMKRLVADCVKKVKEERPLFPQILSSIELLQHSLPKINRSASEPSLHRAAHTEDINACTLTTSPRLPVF
Chain of Ribosomal protein S6 kinase beta-1 (P23443 whole entry): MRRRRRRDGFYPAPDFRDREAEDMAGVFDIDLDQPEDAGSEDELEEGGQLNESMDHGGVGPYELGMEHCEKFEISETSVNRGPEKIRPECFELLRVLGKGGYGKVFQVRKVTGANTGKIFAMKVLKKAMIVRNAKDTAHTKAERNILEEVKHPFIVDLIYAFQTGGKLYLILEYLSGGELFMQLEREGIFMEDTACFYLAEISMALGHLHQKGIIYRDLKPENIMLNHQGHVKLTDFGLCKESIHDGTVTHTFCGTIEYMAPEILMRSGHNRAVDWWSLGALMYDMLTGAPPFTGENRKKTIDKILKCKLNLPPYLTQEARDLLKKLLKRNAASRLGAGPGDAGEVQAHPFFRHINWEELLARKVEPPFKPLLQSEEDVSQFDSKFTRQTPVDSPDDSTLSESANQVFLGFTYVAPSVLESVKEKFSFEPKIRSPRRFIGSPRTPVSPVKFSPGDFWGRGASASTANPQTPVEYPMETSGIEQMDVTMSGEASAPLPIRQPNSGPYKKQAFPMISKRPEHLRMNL
Chain of AMP-activated protein kinase (AMPK) alpha-1/beta-1/gamma-1 (P54619 whole entry): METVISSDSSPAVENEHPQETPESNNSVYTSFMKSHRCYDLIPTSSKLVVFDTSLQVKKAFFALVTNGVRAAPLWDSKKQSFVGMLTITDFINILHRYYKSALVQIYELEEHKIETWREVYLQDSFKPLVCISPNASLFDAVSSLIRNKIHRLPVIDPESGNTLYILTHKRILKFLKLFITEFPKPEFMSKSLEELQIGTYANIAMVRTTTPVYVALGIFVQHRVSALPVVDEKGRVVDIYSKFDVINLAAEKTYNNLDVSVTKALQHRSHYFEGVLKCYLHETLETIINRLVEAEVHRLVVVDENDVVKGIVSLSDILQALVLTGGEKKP
Chain of AMP-activated protein kinase (AMPK) alpha-1/beta-1/gamma-1 (Q9Y478 whole entry): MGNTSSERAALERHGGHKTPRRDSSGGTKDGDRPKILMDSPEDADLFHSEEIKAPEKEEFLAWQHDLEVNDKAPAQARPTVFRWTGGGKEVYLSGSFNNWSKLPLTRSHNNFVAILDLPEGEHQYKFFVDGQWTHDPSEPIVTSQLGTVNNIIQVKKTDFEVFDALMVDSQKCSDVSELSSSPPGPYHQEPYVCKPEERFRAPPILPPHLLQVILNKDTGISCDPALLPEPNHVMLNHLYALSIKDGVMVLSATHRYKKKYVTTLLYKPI
Chain of AMP-activated protein kinase (AMPK) alpha-1/beta-1/gamma-1 (Q13131 whole entry): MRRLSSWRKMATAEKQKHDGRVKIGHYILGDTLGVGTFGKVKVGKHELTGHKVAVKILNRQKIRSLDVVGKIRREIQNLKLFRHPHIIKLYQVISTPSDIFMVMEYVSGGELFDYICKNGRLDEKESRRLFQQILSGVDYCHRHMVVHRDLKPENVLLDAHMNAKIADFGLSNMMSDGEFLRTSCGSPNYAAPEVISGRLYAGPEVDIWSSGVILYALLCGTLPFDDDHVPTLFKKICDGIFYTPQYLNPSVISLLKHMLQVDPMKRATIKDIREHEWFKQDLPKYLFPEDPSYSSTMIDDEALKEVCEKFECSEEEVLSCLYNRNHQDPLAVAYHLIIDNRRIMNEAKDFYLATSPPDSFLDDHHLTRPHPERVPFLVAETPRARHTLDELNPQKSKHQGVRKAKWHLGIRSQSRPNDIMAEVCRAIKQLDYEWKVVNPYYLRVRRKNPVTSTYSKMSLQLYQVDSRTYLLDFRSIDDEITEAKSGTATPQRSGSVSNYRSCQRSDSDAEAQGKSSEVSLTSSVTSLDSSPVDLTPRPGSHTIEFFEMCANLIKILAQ
Chain of Dual specificity mitogen-activated protein kinase kinase 1 (Q02750 whole entry): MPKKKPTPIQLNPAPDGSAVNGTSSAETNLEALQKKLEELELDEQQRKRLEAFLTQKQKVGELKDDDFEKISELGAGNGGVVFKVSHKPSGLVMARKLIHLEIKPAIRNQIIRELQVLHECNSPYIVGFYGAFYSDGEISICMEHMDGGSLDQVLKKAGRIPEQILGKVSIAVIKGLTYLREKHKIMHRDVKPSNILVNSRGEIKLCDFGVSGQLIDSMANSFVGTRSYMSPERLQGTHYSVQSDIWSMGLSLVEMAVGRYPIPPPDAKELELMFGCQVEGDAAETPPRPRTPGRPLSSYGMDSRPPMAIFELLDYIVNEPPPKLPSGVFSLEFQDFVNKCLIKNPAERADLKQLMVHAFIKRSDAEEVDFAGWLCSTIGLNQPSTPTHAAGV

| IC50 [1] [µM] | IC50 [2] [µM] | IC50 [3] [µM] | IC50 [4] [µM] | IC50 [5] [µM] | IC50 [6] [µM] | IC50 [7] [µM] | IC50 [8] [µM] | IC50 [9] [µM] | IC50 [10] [µM] | IC50 [11] [µM] | IC50 [12] [µM] | Structure (SMILES) |
| --- | --- | --- | --- | --- | --- | --- | --- | --- | --- | --- | --- | --- |
| 16 | 6.5 | > 100 | 14 | 30 | 20 | 8.5 | 26 | 12 | 3.3 | 34 | 3.6 | O=C1/C(=C/c2ccccn2)CSC/C1=C\c1ccccn1 |
| > 100 |  | > 100 |  |  | > 100 | > 100 |  | > 100 | > 100 | 15 |  | CN1C/C(=C\c2ccccn2)C(=O)[C@H](Cc2ccccn2)C1 |
| > 100 |  | > 100 |  |  | > 100 | > 100 |  | > 100 | > 100 | 15 |  | CN1C/C(=C\c2ccccn2)C(=O)[C@@H](Cc2ccccn2)C1 |
| 9.8 | 1.3 | > 100 | 3.5 | 9 | 27 |  | 2.5 | 6 | 1.9 | 4 | 2.6 | CN1C/C(=C\c2ccccn2)C(=O)/C(=C/c2ccccn2)C1 |
